Data as given in ChEMBL document CHEMBL5131444, “Essential structure of orexin 1 receptor antagonist YNT-707: Conversion of the 16-cyclopropylmethyl group to the 16-sulfonamide group in d-nor-nalfurafine derivatives” (Bioorg Med Chem Lett, 2022).

How the values were obtained:
Orexin receptor type 2 = biological target: T1, Orexin receptor type 2 (Homo sapiens, UniProt O43614); assay: Antagonist activity at OX2R (unknown origin) by cell-based calcium assay
T1 sequence (O43614 whole entry): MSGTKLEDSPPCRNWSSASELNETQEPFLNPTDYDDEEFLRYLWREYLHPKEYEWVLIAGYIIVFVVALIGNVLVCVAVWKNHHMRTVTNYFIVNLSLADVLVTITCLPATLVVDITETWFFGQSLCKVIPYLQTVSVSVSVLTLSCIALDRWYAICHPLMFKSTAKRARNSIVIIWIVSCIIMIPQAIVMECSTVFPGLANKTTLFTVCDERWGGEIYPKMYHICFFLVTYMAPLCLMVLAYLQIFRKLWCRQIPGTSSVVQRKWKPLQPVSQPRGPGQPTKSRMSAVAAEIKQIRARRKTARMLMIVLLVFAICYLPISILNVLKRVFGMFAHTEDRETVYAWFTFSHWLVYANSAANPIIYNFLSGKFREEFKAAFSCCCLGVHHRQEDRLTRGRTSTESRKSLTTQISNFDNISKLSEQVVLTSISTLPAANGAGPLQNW

[1] = biological target: T2, Orexin/Hypocretin receptor type 1 (Homo sapiens, UniProt O43613); assay: Antagonist activity at OX1R (unknown origin) by cell-based calcium assay; type: functional
T2 sequence (O43613 whole entry): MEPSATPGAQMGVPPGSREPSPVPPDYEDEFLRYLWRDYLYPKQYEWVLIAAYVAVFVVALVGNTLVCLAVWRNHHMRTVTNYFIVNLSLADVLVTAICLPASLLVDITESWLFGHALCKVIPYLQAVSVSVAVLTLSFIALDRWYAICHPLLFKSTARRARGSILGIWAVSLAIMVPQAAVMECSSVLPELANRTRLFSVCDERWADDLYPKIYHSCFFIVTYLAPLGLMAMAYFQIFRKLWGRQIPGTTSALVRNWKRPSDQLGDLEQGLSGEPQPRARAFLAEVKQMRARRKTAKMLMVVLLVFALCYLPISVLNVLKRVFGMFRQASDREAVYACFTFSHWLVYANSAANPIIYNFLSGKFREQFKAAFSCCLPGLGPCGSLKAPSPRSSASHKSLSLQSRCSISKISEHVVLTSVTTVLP

SMILES	IC50 (Orexin receptor type 2) [nM]	Ki [1] [nM]	Ki (Orexin receptor type 2) [nM]
COc1ccc2c3c1O[C@H]1[C@H](N(C)C(=O)/C=C/c4ccoc4)CC=C4[C@@H](C2)N(S(=O)(=O)c2ccccc2)CC[C@]431	> 10000	2.34	
COc1ccc2c3c1O[C@H]1[C@H](N(C)C(=O)/C=C/c4ccoc4)CC[C@@]4(O)[C@@H](C2)N(S(=O)(=O)c2ccccc2N(C)C)CC[C@]314		4.75	1300
COc1ccc2c3c1O[C@H]1[C@H](N(C)C(=O)/C=C/c4ccoc4)CC[C@@]4(O)[C@@H](C2)N(S(=O)(=O)c2ccccc2)CC[C@]314	> 10000	16.8	
COc1ccc2c3c1O[C@H]1[C@H](N(C)C(=O)/C=C/c4ccoc4)CC[C@H]4[C@@H](C2)N(S(=O)(=O)c2ccccc2N(C)C)CC[C@@]341	> 10000	53.5	
COc1ccc2c3c1O[C@H]1[C@H](N(C)C(=O)/C=C/c4ccoc4)CC=C4[C@@H](C2)N(S(=O)(=O)c2ccccc2N(C)C)CC[C@]431	> 10000	8.82	
COc1ccc2c3c1O[C@H]1[C@H](N(C)C(=O)/C=C/c4ccoc4)CC[C@H]4[C@@H](C2)N(S(=O)(=O)c2ccccc2)CC[C@@]341	> 10000	23.6	
